Assay results published in PMC10878246, “Crystal structure and biochemical activity of the macrodomain from rubella virus p150” (Journal of virology, 2024).

Target: T1, RuV macrodomain (macrodomain from rubella virus p150) (Rubella virus, UniProt G3M8F4)
T1 construct: gene NSP; macrodomain, p150 residues 805-983 (p150 is cut from nonstructural polyprotein p200); pET24a, C-terminal His6 tag, no tag cleavage described; E. coli BL21(DE3)
Experiment: isothermal titration calorimetry
Type: binding
Conditions: 20 mM HEPES pH 8, 0.15 M NaCl, 25 °C; 1:1 single-site; crystal structure by soaking with 2 mM ADP-ribose

Compound: Nc1ncnc2c1ncn2[C@@H]1O[C@H](COP(=O)(O)OP(=O)(O)OC[C@H]2OC(O)[C@H](O)[C@@H]2O)[C@@H](O)[C@H]1O (stereo partly shown) [ADP-ribose]
- Kd: 58.1 ± 5.4 µM
